Experimental data: ChEMBL document CHEMBL3045093, “Synthesis, spectral correlation and insect antifeedant activities of some 2-benzimidazole chalcones” (J Saudi Chem Soc, 2013)
The source made the active and inactive calls. No cut-off for these calls is given here.

Test system: Achaea janata
Test: Antifeedant activity against 4th instar larvae of Achaea janata in […] leaves assessed as total leaf disc consumed at 200 ppm after 24 hrs by leaf disc bioassay
Type: functional, organism-based

Question: How did the Activity turn out when `O=C(/C=C/c1cccc(O)c1)c1nc2ccccc2[nH]1` was run?
Answer: Active

Question: For `O=C(/C=C/c1ccccc1Br)c1nc2ccccc2[nH]1`, which Activity is on record?
Answer: Active

Question: With `COc1cccc(/C=C/C(=O)c2nc3ccccc3[nH]2)c1` as the compound, how does the Activity read?
Answer: Active

Question: For `CN(C)c1ccc(/C=C/C(=O)c2nc3ccccc3[nH]2)cc1`, which Activity is on record?
Answer: Active

Question: For `O=C(/C=C/c1ccc(Cl)cc1)c1nc2ccccc2[nH]1`, which Activity is on record?
Answer: Active

Question: With `O=C(/C=C/c1cccc([N+](=O)[O-])c1)c1nc2ccccc2[nH]1` as the compound, how does the Activity read?
Answer: Active

Question: For `O=C(/C=C/c1ccc(O)cc1)c1nc2ccccc2[nH]1`, which Activity is on record?
Answer: Active

Question: How did the Activity turn out when `O=C(/C=C/c1ccc(F)cc1)c1nc2ccccc2[nH]1` was run?
Answer: Active

Question: `O=C(/C=C/c1ccccc1O)c1nc2ccccc2[nH]1` was tested. Which Activity did it give?
Answer: Active

Question: How did the Activity turn out when `O=C(/C=C/c1cccc(Cl)c1)c1nc2ccccc2[nH]1` was run?
Answer: Active

Question: How did the Activity turn out when `O=C(/C=C/c1cccc(Br)c1)c1nc2ccccc2[nH]1` was run?
Answer: Active

Question: With `O=C(/C=C/c1ccccc1Cl)c1nc2ccccc2[nH]1` as the compound, how does the Activity read?
Answer: Active

Question: With `Cc1ccccc1/C=C/C(=O)c1nc2ccccc2[nH]1` as the compound, how does the Activity read?
Answer: Active

Question: `Cc1cccc(/C=C/C(=O)c2nc3ccccc3[nH]2)c1` was tested. Which Activity did it give?
Answer: Active

Question: Which Activity does the source give for `O=C(/C=C/c1ccccc1[N+](=O)[O-])c1nc2ccccc2[nH]1` here?
Answer: Active

Question: With `COc1ccccc1/C=C/C(=O)c1nc2ccccc2[nH]1` as the compound, how does the Activity read?
Answer: Active

Question: How did the Activity turn out when `O=C(/C=C/c1ccc([N+](=O)[O-])cc1)c1nc2ccccc2[nH]1` was run?
Answer: Active

Question: Which Activity does the source give for `O=C(/C=C/c1ccc(Br)cc1)c1nc2ccccc2[nH]1` here?
Answer: Active

Question: `Cc1ccc(/C=C/C(=O)c2nc3ccccc3[nH]2)cc1` was tested. Which Activity did it give?
Answer: Active

Question: With `O=C(/C=C/c1ccccc1)c1nc2ccccc2[nH]1` as the compound, how does the Activity read?
Answer: Active

Question: Which Activity does the source give for `COc1ccc(/C=C/C(=O)c2nc3ccccc3[nH]2)cc1` here?
Answer: Active

Test system: Achaea janata
Test: Antifeedant activity against 4th instar larvae of Achaea janata in […] leaves assessed as total leaf disc consumed at 150 ppm after 24 hrs by leaf disc bioassay
Type: functional, organism-based

Question: `O=C(/C=C/c1ccc(Br)cc1)c1nc2ccccc2[nH]1` was tested. Which Activity did it give?
Answer: Active
